{
  "source": "PubChem BioAssay AID1963964",
  "about": "(Molecular Pharmacology Branch, DTP, NCI, 2024)",
  "system": "997726-040-R-J2-PDC tumor spheroids, viability",
  "experiment": "Anticancer human tumor 997726-040-R-J2-PDC patient-derived squamous cell lung carcinoma cell line growth inhibition [PI3K]",
  "conditions": "spheroids with HUVEC and MSC; for IC50: curve of first compound; for viability, T/C: stronger effect = lower value",
  "how_it_was_run": "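Stroma-containing spheroids: tumor line, pooled-donor HUVEC, hMSC. Treatments: targeted agents with PI3K inhibitors. Dosing: clinically relevant, half-log spacing, 10 microM ceiling without known Cmax. Read-out: cell viability.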",
  "data": [
    {"compound": "CC1(C)CCC(CN2CCN(c3ccc(C(=O)NS(=O)(=O)c4ccc(NCC5CCOCC5)c([N+](=O)[O-])c4)c(Oc4cnc5[nH]ccc5c4)c3)CC2)=C(c2ccc(Cl)cc2)C1", "note": "+ COc1c(OCCCN2CCOCC2)ccc2c3n(c(=NC(=O)c4cnc(N)nc4)nc12)CCN3;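 also: spheroids exposed to compounds for seven days before readout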", "values": [
      {"measurement": "IC50", "setting": "second compound 0.00316 µM", "result": 6890, "unit": "nM"},
      {"measurement": "IC50", "setting": "second compound 0.01 µM", "result": 4200, "unit": "nM"},
      {"measurement": "IC50", "setting": "second compound 0.0316 µM", "result": "< 31.6", "unit": "nM"},
      {"measurement": "IC50", "setting": "second compound 0.1 µM", "result": "< 31.6", "unit": "nM"},
      {"measurement": "IC50", "setting": "second compound 0.316 µM", "result": "< 31.6", "unit": "nM"},
      {"measurement": "IC50", "setting": "second compound 1 µM", "result": "< 31.6", "unit": "nM"},
      {"measurement": "viability, T/C", "setting": "second compound 0.00316 µM, first compound 0.0316 µM", "result": 75.4, "unit": "%"},
      {"measurement": "viability, T/C", "setting": "second compound 0.00316 µM, first compound 0.1 µM", "result": 77.4, "unit": "%"},
      {"measurement": "viability, T/C", "setting": "second compound 0.00316 µM, first compound 0.316 µM", "result": 74.3, "unit": "%"},
      {"measurement": "viability, T/C", "setting": "second compound 0.00316 µM, first compound 1 µM", "result": 81.1, "unit": "%"},
      {"measurement": "viability, T/C", "setting": "second compound 0.00316 µM, first compound 3.16 µM", "result": 78.2, "unit": "%"},
      {"measurement": "viability, T/C", "setting": "second compound 0.00316 µM, first compound 10 µM", "result": 36.9, "unit": "%"},
      {"measurement": "viability, T/C", "setting": "second compound 0.01 µM, first compound 0.0316 µM", "result": 62, "unit": "%"},
      {"measurement": "viability, T/C", "setting": "second compound 0.01 µM, first compound 0.1 µM", "result": 64.6, "unit": "%"},
      {"measurement": "viability, T/C", "setting": "second compound 0.01 µM, first compound 0.316 µM", "result": 68.4, "unit": "%"},
      {"measurement": "viability, T/C", "setting": "second compound 0.01 µM, first compound 1 µM", "result": 60.7, "unit": "%"},
      {"measurement": "viability, T/C", "setting": "second compound 0.01 µM, first compound 3.16 µM", "result": 57.4, "unit": "%"},
      {"measurement": "viability, T/C", "setting": "second compound 0.01 µM, first compound 10 µM", "result": 28.9, "unit": "%"},
      {"measurement": "viability, T/C", "setting": "second compound 0.0316 µM, first compound 0.0316 µM", "result": 35.3, "unit": "%"},
      {"measurement": "viability, T/C", "setting": "second compound 0.0316 µM, first compound 0.1 µM", "result": 36.5, "unit": "%"},
      {"measurement": "viability, T/C", "setting": "second compound 0.0316 µM, first compound 0.316 µM", "result": 37.8, "unit": "%"},
      {"measurement": "viability, T/C", "setting": "second compound 0.0316 µM, first compound 1 µM", "result": 37.7, "unit": "%"},
      {"measurement": "viability, T/C", "setting": "second compound 0.0316 µM, first compound 3.16 µM", "result": 34.3, "unit": "%"},
      {"measurement": "viability, T/C", "setting": "second compound 0.0316 µM, first compound 10 µM", "result": 21.2, "unit": "%"},
      {"measurement": "viability, T/C", "setting": "second compound 0.1 µM, first compound 0.0316 µM", "result": 23.1, "unit": "%"},
      {"measurement": "viability, T/C", "setting": "second compound 0.1 µM, first compound 0.1 µM", "result": 22.9, "unit": "%"},
      {"measurement": "viability, T/C", "setting": "second compound 0.1 µM, first compound 0.316 µM", "result": 21.8, "unit": "%"},
      {"measurement": "viability, T/C", "setting": "second compound 0.1 µM, first compound 1 µM", "result": 23, "unit": "%"},
      {"measurement": "viability, T/C", "setting": "second compound 0.1 µM, first compound 3.16 µM", "result": 20.6, "unit": "%"},
      {"measurement": "viability, T/C", "setting": "second compound 0.1 µM, first compound 10 µM", "result": 9.14, "unit": "%"},
      {"measurement": "viability, T/C", "setting": "second compound 0.316 µM, first compound 0.0316 µM", "result": 4.52, "unit": "%"},
      {"measurement": "viability, T/C", "setting": "second compound 0.316 µM, first compound 0.1 µM", "result": 6.09, "unit": "%"},
      {"measurement": "viability, T/C", "setting": "second compound 0.316 µM, first compound 0.316 µM", "result": 3.55, "unit": "%"},
      {"measurement": "viability, T/C", "setting": "second compound 0.316 µM, first compound 1 µM", "result": 3.55, "unit": "%"},
      {"measurement": "viability, T/C", "setting": "second compound 0.316 µM, first compound 3.16 µM", "result": 3.34, "unit": "%"},
      {"measurement": "viability, T/C", "setting": "second compound 0.316 µM, first compound 10 µM", "result": 2.27, "unit": "%"},
      {"measurement": "viability, T/C", "setting": "second compound 1 µM, first compound 0.0316 µM", "result": 1.34, "unit": "%"},
      {"measurement": "viability, T/C", "setting": "second compound 1 µM, first compound 0.1 µM", "result": 1.27, "unit": "%"},
      {"measurement": "viability, T/C", "setting": "second compound 1 µM, first compound 0.316 µM", "result": 0.77, "unit": "%"},
      {"measurement": "viability, T/C", "setting": "second compound 1 µM, first compound 1 µM", "result": 0.81, "unit": "%"},
      {"measurement": "viability, T/C", "setting": "second compound 1 µM, first compound 3.16 µM", "result": 1.49, "unit": "%"},
      {"measurement": "viability, T/C", "setting": "second compound 1 µM, first compound 10 µM", "result": 1.38, "unit": "%"}
    ]},
    {"compound": "Cn1cnc2c(F)c(Nc3ccc(Br)cc3Cl)c(C(=O)NOCCO)cc21", "note": "+ COc1c(OCCCN2CCOCC2)ccc2c3n(c(=NC(=O)c4cnc(N)nc4)nc12)CCN3", "values": [
      {"measurement": "IC50", "setting": "second compound 0.00316 µM", "result": 46.1, "unit": "nM"},
      {"measurement": "IC50", "setting": "second compound 0.01 µM", "result": "< 9.49", "unit": "nM"},
      {"measurement": "IC50", "setting": "second compound 0.0316 µM", "result": "< 9.49", "unit": "nM"},
      {"measurement": "IC50", "setting": "second compound 0.1 µM", "result": "< 9.49", "unit": "nM"},
      {"measurement": "IC50", "setting": "second compound 0.316 µM", "result": "< 9.49", "unit": "nM"},
      {"measurement": "IC50", "setting": "second compound 1 µM", "result": "< 9.49", "unit": "nM"},
      {"measurement": "viability, T/C", "setting": "second compound 0.00316 µM, first compound 0.00949 µM", "result": 60.5, "unit": "%"},
      {"measurement": "viability, T/C", "setting": "second compound 0.00316 µM, first compound 0.03 µM", "result": 55.1, "unit": "%"},
      {"measurement": "viability, T/C", "setting": "second compound 0.00316 µM, first compound 0.0949 µM", "result": 39.2, "unit": "%"},
      {"measurement": "viability, T/C", "setting": "second compound 0.00316 µM, first compound 0.3 µM", "result": 46.1, "unit": "%"},
      {"measurement": "viability, T/C", "setting": "second compound 0.00316 µM, first compound 0.949 µM", "result": 38, "unit": "%"},
      {"measurement": "viability, T/C", "setting": "second compound 0.00316 µM, first compound 3 µM", "result": 33.2, "unit": "%"},
      {"measurement": "viability, T/C", "setting": "second compound 0.01 µM, first compound 0.00949 µM", "result": 44.3, "unit": "%"},
      {"measurement": "viability, T/C", "setting": "second compound 0.01 µM, first compound 0.03 µM", "result": 43, "unit": "%"},
      {"measurement": "viability, T/C", "setting": "second compound 0.01 µM, first compound 0.0949 µM", "result": 39.1, "unit": "%"},
      {"measurement": "viability, T/C", "setting": "second compound 0.01 µM, first compound 0.3 µM", "result": 36.5, "unit": "%"},
      {"measurement": "viability, T/C", "setting": "second compound 0.01 µM, first compound 0.949 µM", "result": 28.6, "unit": "%"},
      {"measurement": "viability, T/C", "setting": "second compound 0.01 µM, first compound 3 µM", "result": 27.5, "unit": "%"},
      {"measurement": "viability, T/C", "setting": "second compound 0.0316 µM, first compound 0.00949 µM", "result": 36.6, "unit": "%"},
      {"measurement": "viability, T/C", "setting": "second compound 0.0316 µM, first compound 0.03 µM", "result": 33.4, "unit": "%"},
      {"measurement": "viability, T/C", "setting": "second compound 0.0316 µM, first compound 0.0949 µM", "result": 26.2, "unit": "%"},
      {"measurement": "viability, T/C", "setting": "second compound 0.0316 µM, first compound 0.3 µM", "result": 24.6, "unit": "%"},
      {"measurement": "viability, T/C", "setting": "second compound 0.0316 µM, first compound 0.949 µM", "result": 24.1, "unit": "%"},
      {"measurement": "viability, T/C", "setting": "second compound 0.0316 µM, first compound 3 µM", "result": 16.7, "unit": "%"},
      {"measurement": "viability, T/C", "setting": "second compound 0.1 µM, first compound 0.00949 µM", "result": 20.8, "unit": "%"},
      {"measurement": "viability, T/C", "setting": "second compound 0.1 µM, first compound 0.03 µM", "result": 20.8, "unit": "%"},
      {"measurement": "viability, T/C", "setting": "second compound 0.1 µM, first compound 0.0949 µM", "result": 15.6, "unit": "%"},
      {"measurement": "viability, T/C", "setting": "second compound 0.1 µM, first compound 0.3 µM", "result": 15.2, "unit": "%"},
      {"measurement": "viability, T/C", "setting": "second compound 0.1 µM, first compound 0.949 µM", "result": 14.7, "unit": "%"},
      {"measurement": "viability, T/C", "setting": "second compound 0.1 µM, first compound 3 µM", "result": 7.1, "unit": "%"},
      {"measurement": "viability, T/C", "setting": "second compound 0.316 µM, first compound 0.00949 µM", "result": 5.7, "unit": "%"},
      {"measurement": "viability, T/C", "setting": "second compound 0.316 µM, first compound 0.03 µM", "result": 5.13, "unit": "%"},
      {"measurement": "viability, T/C", "setting": "second compound 0.316 µM, first compound 0.0949 µM", "result": 2.49, "unit": "%"},
      {"measurement": "viability, T/C", "setting": "second compound 0.316 µM, first compound 0.3 µM", "result": 2.68, "unit": "%"},
      {"measurement": "viability, T/C", "setting": "second compound 0.316 µM, first compound 0.949 µM", "result": 1.51, "unit": "%"},
      {"measurement": "viability, T/C", "setting": "second compound 0.316 µM, first compound 3 µM", "result": 0.35, "unit": "%"},
      {"measurement": "viability, T/C", "setting": "second compound 1 µM, first compound 0.00949 µM", "result": 2.27, "unit": "%"},
      {"measurement": "viability, T/C", "setting": "second compound 1 µM, first compound 0.03 µM", "result": 1.05, "unit": "%"},
      {"measurement": "viability, T/C", "setting": "second compound 1 µM, first compound 0.0949 µM", "result": 0.66, "unit": "%"},
      {"measurement": "viability, T/C", "setting": "second compound 1 µM, first compound 0.3 µM", "result": 0.55, "unit": "%"},
      {"measurement": "viability, T/C", "setting": "second compound 1 µM, first compound 0.949 µM", "result": 0.39, "unit": "%"},
      {"measurement": "viability, T/C", "setting": "second compound 1 µM, first compound 3 µM", "result": 0.27, "unit": "%"}
    ]}
  ]
}
